Measurements published in US20260191873A1, “FUSED AMINO PYRIMIDINE COMPOUNDS FOR TREATMENT OF 22q11.2 DELETION/DUPLICATION SYNDROMES” (Ovid Therapeutics Inc., priority 2024, published 2026).

Columns and labels:
KA induced SE [1] = assay: KA induced ongoing SE, EEG, treatment 2 h after KA; type: in vivo, mice
Protocol: EEG recordings and analysis. WT C57Bl/6J adult male mice (12 weeks) were anesthetized with isofluorane and implanted with EEG/EMG electrodes and allowed to recover for 7 days prior to experimentation. […] 2 h following KA administration mice were injected with a saturating concentration of diazepam (DZ) 10 mg/kg (IP) and recordings were extended for a further 60 min. […] LabChart 8 software was used for data analysis. Epileptiform activity was identified by changes in the amplitude of electrographic activity characterized by consistent changes in the power of the Fast Fourier transform (FFT) of the EEG and abnormal activity characterized by periods of rhythmic spiking lasting longer than 30 s (Moore et al., 2017, supra; Silayeva et al., 2015, supra; Sivakumaran et al., J. Neurosci. 35, 8291-8296 (2015)).
To evaluate the potential of KCC2 activators to terminate ongoing SE, the KA model described above was employed. Mice were injected with KA (20 mg/Kg; IP). […] Spectral data were then subjected to FFT and the total EEG power between 1-100 Hz of the 2 h following KA treatment (pre-drug) and 30 min following their injection (post-drug) were compared (FIG. 6B). In mice treated with DZ alone variable effects were observed, from large increases to modest reductions in EEG power, but these effects were not significant (FIG. 6C; pre=1.1±0.2×10^−6, post=4.4±7.4×10^−7 μV^2, p=0.214, n=13-14 mice). […]

KA induced SE [2] = assay: KA induced SE, EEG, direct injection into the hippocampus; type: in vivo, mice; conditions: injected into the hippocampus, DZ 2 h after KA
Protocol: 30 or 60 min later mice were injected with KA (20 mg/kg) and 2 h later with DZ as detailed above.

KA induced SE [3] = assay: Kainic acid (KA) induced SE, EEG, pretreatment; type: in vivo, mice; conditions: Compound A pretreated, 2 h after KA, pre DZ; vehicle 4.2±2.4×10^−6
Source text: This model was chosen due to the similarities with patients undergoing SE, as KA-induced seizures become refractory to benzodiazepines (BDZs) within minutes (Betjemann and Lowenstein, Lancet Neurol 14, 615-624 (2015); Crawshaw and Cock, (2020a) [Seizure: Eur. J. Epilep. 75 (2020) 145-152] Seizure 80, 282; Lee et al., 2022, supra; Reddy and Kuruba, Int J Mol Sci 14, 18284-18318 (2013)).
EEG recordings and analysis. WT C57Bl/6J adult male mice (12 weeks) were anesthetized with isofluorane and implanted with EEG/EMG electrodes and allowed to recover for 7 days prior to experimentation. […] 2 h following KA administration mice were injected with a saturating concentration of diazepam (DZ) 10 mg/kg (IP) and recordings were extended for a further 60 min. […] LabChart 8 software was used for data analysis. […]
To provide quantitative insights on the effects of KA, raw EEG recordings were subject to Fast-Fourier transformation (8K FFT size, Hann (cosine-bell), 87.50% window overlap) for frequencies between 0-100 Hz 2 h after KA injection (Lee et al., 2022, supra). […]

[4] = system: panel of 144 protein kinases; assay: Protein kinase panel (SelectScreen; Thermofisher); type: biochemical; conditions: 144 protein kinases incl. PKC isoforms, OSR1, SPAK, WNK
Protocol: Aliquots of HEK-293 cells expressing KCC2 were exposed to 30 μM SSA, heated from 37-55° C. The remaining level of soluble native KCC2 at each temperature was measured by immunoblotting and normalized to the level seen at 37° C. which was given a value of 1. […] This panel included protein kinase C isoforms, OSR1, SPAK (STK39) and with-no-lysine kinases (WNK), all of which phosphorylate KCC2 on multiple residues to indirectly modify its activity (Kahle et al., 2013, supra; Smalley et al., 2020, supra).

KCC2 = target: T1, KCC2 (Homo sapiens, UniProt Q9H2X9); assay: FLIPR Tl+ flux assay in HEK-293 cells expressing KCC2; type: cell-based; conditions: saturating concentration of 3 μM, 1% BCD vehicle
T1 construct: expressed in transfected cells; host or cells: HEK-293 (ATCC CRL-1573)
T1 sequence (Q9H2X9 1-1116 isoform Q9H2X9-2): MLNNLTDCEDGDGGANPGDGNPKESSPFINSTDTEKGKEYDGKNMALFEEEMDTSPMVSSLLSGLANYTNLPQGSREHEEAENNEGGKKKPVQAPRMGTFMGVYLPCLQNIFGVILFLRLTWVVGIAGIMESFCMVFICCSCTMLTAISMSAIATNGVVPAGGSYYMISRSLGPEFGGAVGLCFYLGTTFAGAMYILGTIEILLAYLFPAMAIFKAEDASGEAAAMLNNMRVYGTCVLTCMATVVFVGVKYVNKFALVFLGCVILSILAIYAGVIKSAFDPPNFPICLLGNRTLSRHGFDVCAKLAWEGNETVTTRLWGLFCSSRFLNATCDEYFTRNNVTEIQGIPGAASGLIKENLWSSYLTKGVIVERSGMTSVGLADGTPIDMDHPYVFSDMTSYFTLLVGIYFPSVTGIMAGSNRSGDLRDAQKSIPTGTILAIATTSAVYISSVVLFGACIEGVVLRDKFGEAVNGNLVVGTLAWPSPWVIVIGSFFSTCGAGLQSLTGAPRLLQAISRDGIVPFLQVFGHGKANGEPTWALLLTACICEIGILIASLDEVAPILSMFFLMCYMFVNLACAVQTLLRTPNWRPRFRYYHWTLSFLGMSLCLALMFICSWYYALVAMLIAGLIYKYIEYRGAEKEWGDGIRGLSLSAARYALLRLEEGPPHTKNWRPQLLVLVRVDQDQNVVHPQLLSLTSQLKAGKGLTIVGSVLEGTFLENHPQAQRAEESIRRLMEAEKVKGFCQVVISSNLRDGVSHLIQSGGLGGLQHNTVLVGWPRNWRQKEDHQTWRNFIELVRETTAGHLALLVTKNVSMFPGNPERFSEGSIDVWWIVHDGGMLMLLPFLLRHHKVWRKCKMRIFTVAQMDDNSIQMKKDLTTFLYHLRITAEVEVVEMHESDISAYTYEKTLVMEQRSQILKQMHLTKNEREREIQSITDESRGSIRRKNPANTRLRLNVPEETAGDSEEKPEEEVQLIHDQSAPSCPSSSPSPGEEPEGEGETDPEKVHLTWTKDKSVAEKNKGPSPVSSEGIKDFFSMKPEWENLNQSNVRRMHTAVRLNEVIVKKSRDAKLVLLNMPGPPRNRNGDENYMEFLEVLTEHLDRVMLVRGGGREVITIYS
Protocol: A multi-tiered high-throughput screening assay was used, leveraging a proprietary library of 1.3 million small molecule compounds from AstraZeneca (Cambridge, UK) to identify chemical entities capable of activating KCC2. A single point concentration of 30 μM was used to identify potassium flux using an established thallium (TI+) influx FLIPR assay as the primary read out in HEK-293 cells overexpressing KCC2 (Cardarelli et al., Nat. Med. 23, 1394-1396 (2017); Conway et al., J Biol Chem 292, 21253-21263 (2017); Lee et al., 2022, supra).
Cell Culture and biotinylation. […]
FLIPR TI Flux assay. HEK-293 cells were washed with HBSS, and then incubated with loading buffer containing TI sensitive fluorescent dye (https://www.moleculardevices.com), 20 μM bumetanide 20 μM ouabain and 2.5 mM probenecid for 1 h at room temperature (RT) under control conditions or with drugs in the dark using a FlexStation 3 microplate reader (Molecular Devices) and imaged […] for 30 min. Stimulus buffer was added containing 5 mM K^+/0.5 mM Tl^+ and cells were imaged every 1.5 over a 190 second time course The initial rate Tl^+ uptake (Relative Fluorescence Units (RFU) per second) was determined following addition of the stimulus buffer as outlined previously (Conway et al., 2017, supra) (Lee et al., 2022, supra). […]

| Compound | mice insensitive to the effects on EEG power (KA induced SE [1]; DZ 10 mg/kg IP 2 h after KA) [%] | effect of DZ on seizure parameters in pretreated mice (KA induced SE [2]) | DZ insensitivity (KA induced SE [1]; Compound A 50 mg/kg with DZ 10 mg/kg IP) | total EEG power (KA induced SE [3]) | activity of kinase panel [4] | maximum potentiation (KCC2) [%] |
| --- | --- | --- | --- | --- | --- | --- |
| CN1C(=O)CN=C(c2ccccc2)c2cc(Cl)ccc21 [DZ, diazepam, reference compound] | 62 | – | – | – | – | – |
| C[C@@H]1CN(c2nc3c(c(Nc4ccc(C5CCCCC5)cc4)n2)COC3)CCO1 [Compound A, (R)—N-(4-cyclohexylphenyl)-2-(2-methylmorpholino)-5,7-dihydrofuro[3,4-d]pyrimidin-4-amine] | – | significantly reduced | abolished | 6.9±3.2×10^−7 μV^2 | did not modify the activity | 90 |
